Reference: patent US8834841B2, “Imaging agents” (priority 2005, dated 2014)

Tests used:
[1] = tested on: U87 glial blastoma; test: in vitro amino acid uptake, U87 cells; format: cell-based, human
Description: (§1) The inventive compounds have been evaluated in vitro for tumor binding specificity (i.e. uptake cells) using a variety of tumor cell lines available in the art, along with reference compounds such as Me-AIB and BCH. Detailed description of these assays can be found in Martarello et al. (2002) Journal of Medicinal Chemistry, 45:2250-2259 and McConathy et al. (2003) Nuclear Medicine and Biology, 30:477-490. These, so called “amino acid uptake studies” are typically carried out with radiolabeled compounds in at least five phenotypically different human tumor cell lines (e.g. A549 lung carcinoma, MB468 breast carcinoma, DU145 prostate carcinoma, SKOV3 ovarian carcinoma, and U87 glial blastoma). These tumor cell lines can be grown either in vitro or in vivo with severe combined immunodeficiency (SCID) mice as a host. The fore-mentioned tumor cell lines are available at the Winship Cancer Institute of Emory University.
(§2) For the in vitro amino acid uptake studies, all cells can be grown to monolayer confluency in T-175 culture flasks [Corning, Corning, N.Y.] (approx. 1×10^8 cells/flask) in Dulbecco's Modified Eagle's Medium (DMEM) [Sigma, St. Louis, Mo.] in a humidified incubator (37° C., 5% CO2/95% air). Media are supplemented with 10% fetal calf serum [Hyclone, Logan, Utah], and antibiotics (10,000 U/ml penicillin and 10 mg/ml streptomycin) (Sigma, St. Louis, Mo.). For tissue culture passage, monolayer cells are detached by gentle trypsinization, resuspended in complete media, and split 1:10 into new T-flasks. […]
(§3) In the in vitro studies the uptake rate of each amino acid compound is measured in each tumor line, as well as the dominant transport mechanisms of each tumor cell line. After trypsinization, cells are resuspended in serum-free media, then counted on a hemocytometer, with viability assessed through Trypan blue staining. […] The vials are placed in a Cobra-II gamma counter (Packard, Meriden, Conn.), with the activity per cell number determined. […] Saline washes are performed as described above, and the filtered cells radioactivity determined on the gamma counter. […]

[2] = tested on: MB468 breast carcinoma; test: in vitro amino acid uptake, MDA MB 468 cells; format: cell-based, human
Description: as §1, §2, §3

[3] = tested on: DU145 Prostate Tumor Cells Implanted SC in SCID Mice; test: tissue distribution, DU145 tumor-bearing SCID mice; format: in vivo
Description: For the in vitro amino acid uptake studies, all cells can be grown to monolayer confluency in T-175 culture flasks [Corning, Corning, N.Y.] (approx. 1×10^8 cells/flask) in Dulbecco's Modified Eagle's Medium (DMEM) [Sigma, St. Louis, Mo.] in a humidified incubator (37° C., 5% CO2/95% air). Media are supplemented with 10% fetal calf serum [Hyclone, Logan, Utah], and antibiotics (10,000 U/ml penicillin and 10 mg/ml streptomycin) (Sigma, St. Louis, Mo.). For tissue culture passage, monolayer cells are detached by gentle trypsinization, resuspended in complete media, and split 1:10 into new T-flasks. Cultures are passaged weekly, and fed fresh media every 2 to 3 days. To initiate tumor growth in SCID mice, 1×10^6 cells are injected s.c. bilaterally into the flanks (inguinal region) of the recipient animals using a 1 ml syringe with a 27 gauge needle. Ex vivo experiments can be performed with animals containing tumors weighing between 500 mg and 1 g, as estimated by caliper measurement (tumor weight=(π/6)*abc, where a, b and c are the tumor length, width and height, respectively). The compounds of the invention are further evaluated for their tumor specificity and selectivity in tumor-bearing animal models. One can evaluate and compare the transport, accumulation and tissue distribution of each compound in these in vivo animal studies. Tissue distribution of the compounds is measured in SCID mice (average weight, 20-25 g) bearing human tumors as follows. The candidate radioligands (20 uCi in 0.4 ml 0.9% NaCl) are injected into the tail vein of tumor-bearing mice. […] Tissues (blood, heart, liver, lungs, kidneys, bone, thyroid, muscle, brain and tumor) are excised, rinsed in saline, and blotted dry. The tissues are weighed, placed into 12×75 mm glass vials, the radioactivity determined with a gamma counter, and the percent dose/gram calculated. Total activities of blood and muscle are calculated by assuming that they account for 7% and 40% of the total body mass, respectively.

**Q.** With NC1(C(=O)O)CCC1[18F] [Anti-R,S 2-[^18F]FACBC, (R,S) anti-1-amino-2-[^18F]fluorocyclobutyl-1-carboxylic acid] as the molecule, how does the “% Dose Uptake/0.5e6 Cells” value ([1]; U87, No inhibitor) read?
**A.** Its value is 8.28 +/− 0.45 % Dose Uptake/0.5e6 Cells.

**Q.** What about the “% Dose Uptake/0.5e6 Cells” value ([1]; U87, inhibitor BCH (10 mM)) of the same molecule?
**A.** Its value is 2.48 +/− 0.23 % Dose Uptake/0.5e6 Cells.

**Q.** What about the “% Dose Uptake/0.5e6 Cells” value ([1]; U87, inhibitor MeAlB (10 mM)) of the same molecule?
**A.** Its value is 5.41 +/− 0.64 % Dose Uptake/0.5e6 Cells.

**Q.** What about the “% Dose Uptake/0.5e6 Cells” value ([2]; MDA MB 468, No inhibitor) of the same molecule?
**A.** Its value is 7.37 +/− 0.21 % Dose Uptake/0.5e6 Cells.

**Q.** And the “% Dose Uptake/0.5e6 Cells” value ([2]; MDA MB 468, inhibitor BCH (10 mM))?
**A.** Its value is 1.67 +/− 0.36 % Dose Uptake/0.5e6 Cells.

**Q.** What about the “% Dose Uptake/0.5e6 Cells” value ([2]; MDA MB 468, inhibitor MeAlB (10 mM)) of the same molecule?
**A.** Its value is 3.02 +/− 0.55 % Dose Uptake/0.5e6 Cells.

**Q.** And the “% Dose/g blood” value ([3]; 15 Minutes)?
**A.** The value was 2.79 % Dose/g.

**Q.** What about the “% Dose/g bone” value ([3]; 15 Minutes) of the same molecule?
**A.** Its value is 1.05 % Dose/g.

**Q.** And the “% Dose/g brain” value ([3]; 15 Minutes)?
**A.** The value was 0.16 % Dose/g.

**Q.** What about the “% Dose/g heart” value ([3]; 15 Minutes) of the same molecule?
**A.** Its value is 2.07 % Dose/g.

**Q.** What about the “% Dose/g kidney” value ([3]; 15 Minutes) of the same molecule?
**A.** Its value is 6.81 % Dose/g.

**Q.** What about the “% Dose/g liver” value ([3]; 15 Minutes) of the same molecule?
**A.** The value was 2.32 % Dose/g.

**Q.** What about the “% Dose/g lung” value ([3]; 15 Minutes) of the same molecule?
**A.** Its value is 3.35 % Dose/g.

**Q.** What about the “% Dose/g muscle” value ([3]; 15 Minutes) of the same molecule?
**A.** Its value is 0.83 % Dose/g.

**Q.** And the “% Dose/g pancreas” value ([3]; 15 Minutes)?
**A.** The value was 29.02 % Dose/g.

**Q.** And the “% Dose/g spleen” value ([3]; 15 Minutes)?
**A.** Its value is 4.37 % Dose/g.

**Q.** What about the “% Dose/g tumor” value ([3]; 15 Minutes) of the same molecule?
**A.** The value was 2.94 % Dose/g.

**Q.** And the “% Dose/g blood” value ([3]; 30 Minutes)?
**A.** The value was 1.85 % Dose/g.

**Q.** And the “% Dose/g bone” value ([3]; 30 Minutes)?
**A.** Its value is 1.62 % Dose/g.

**Q.** What about the “% Dose/g brain” value ([3]; 30 Minutes) of the same molecule?
**A.** The value was 0.16 % Dose/g.

**Q.** What about the “% Dose/g heart” value ([3]; 30 Minutes) of the same molecule?
**A.** Its value is 1.82 % Dose/g.

**Q.** What about the “% Dose/g kidney” value ([3]; 30 Minutes) of the same molecule?
**A.** The value was 4.47 % Dose/g.

**Q.** What about the “% Dose/g liver” value ([3]; 30 Minutes) of the same molecule?
**A.** The value was 2.08 % Dose/g.

**Q.** And the “% Dose/g lung” value ([3]; 30 Minutes)?
**A.** Its value is 2.31 % Dose/g.

**Q.** What about the “% Dose/g muscle” value ([3]; 30 Minutes) of the same molecule?
**A.** Its value is 0.99 % Dose/g.

**Q.** And the “% Dose/g pancreas” value ([3]; 30 Minutes)?
**A.** Its value is 29.29 % Dose/g.

**Q.** What about the “% Dose/g spleen” value ([3]; 30 Minutes) of the same molecule?
**A.** The value was 4.74 % Dose/g.

**Q.** What about the “% Dose/g tumor” value ([3]; 30 Minutes) of the same molecule?
**A.** Its value is 3.54 % Dose/g.

**Q.** And the “% Dose/g blood” value ([3]; 60 Minutes)?
**A.** The value was 0.80 % Dose/g.

**Q.** What about the “% Dose/g bone” value ([3]; 60 Minutes) of the same molecule?
**A.** The value was 2.22 % Dose/g.

**Q.** And the “% Dose/g brain” value ([3]; 60 Minutes)?
**A.** The value was 0.17 % Dose/g.

**Q.** What about the “% Dose/g heart” value ([3]; 60 Minutes) of the same molecule?
**A.** The value was 1.32 % Dose/g.

**Q.** What about the “% Dose/g kidney” value ([3]; 60 Minutes) of the same molecule?
**A.** The value was 1.82 % Dose/g.

**Q.** What about the “% Dose/g liver” value ([3]; 60 Minutes) of the same molecule?
**A.** Its value is 1.22 % Dose/g.

**Q.** And the “% Dose/g lung” value ([3]; 60 Minutes)?
**A.** Its value is 1.18 % Dose/g.

**Q.** What about the “% Dose/g muscle” value ([3]; 60 Minutes) of the same molecule?
**A.** Its value is 1.15 % Dose/g.

**Q.** And the “% Dose/g pancreas” value ([3]; 60 Minutes)?
**A.** The value was 15.00 % Dose/g.

**Q.** And the “% Dose/g spleen” value ([3]; 60 Minutes)?
**A.** Its value is 2.84 % Dose/g.

**Q.** What about the “% Dose/g tumor” value ([3]; 60 Minutes) of the same molecule?
**A.** Its value is 2.56 % Dose/g.

**Q.** And the “% Dose/g blood” value ([3]; 120 Minutes)?
**A.** Its value is 0.38 % Dose/g.

**Q.** And the “% Dose/g bone” value ([3]; 120 Minutes)?
**A.** Its value is 0.65 % Dose/g.

**Q.** And the “% Dose/g brain” value ([3]; 120 Minutes)?
**A.** The value was 0.12 % Dose/g.

**Q.** And the “% Dose/g heart” value ([3]; 120 Minutes)?
**A.** Its value is 0.82 % Dose/g.

**Q.** What about the “% Dose/g kidney” value ([3]; 120 Minutes) of the same molecule?
**A.** Its value is 0.78 % Dose/g.

**Q.** And the “% Dose/g liver” value ([3]; 120 Minutes)?
**A.** The value was 0.42 % Dose/g.

**Q.** And the “% Dose/g lung” value ([3]; 120 Minutes)?
**A.** The value was 0.45 % Dose/g.

**Q.** And the “% Dose/g muscle” value ([3]; 120 Minutes)?
**A.** Its value is 0.71 % Dose/g.

**Q.** And the “% Dose/g pancreas” value ([3]; 120 Minutes)?
**A.** Its value is 5.92 % Dose/g.

**Q.** What about the “% Dose/g spleen” value ([3]; 120 Minutes) of the same molecule?
**A.** Its value is 0.87 % Dose/g.

**Q.** And the “% Dose/g tumor” value ([3]; 120 Minutes)?
**A.** The value was 1.84 % Dose/g.
